Test [1] concerns the target T1, HIF-2α HIS TAG-PASB Domain (Homo sapiens, UniProt Q99814).
T1 construct: 100 nM HIF-2α HIS TAG-PASB Domain
Put plainly: HIF-2α Scintillation Proximity Assay (SPA). Format: binding. As to conditions: 150 nM Compound 211 probe, 100 nM HIF-2α HIS TAG-PASB Domain; read-out: SPA IC50. Summed up: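 IC50 values rest on percent inhibition, where the sample signal is scaled between high and low controls. Wells contain about 100 μL: compound dispensed as 2 μL of DMSO solution, 88 μL protein-probe mix and 10 μL of beads.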
In general terms: Scintillation proximity formats need no separation of bound from free tracer.

Another test relates to 786-O-Hif-Luc cells. The test is described as follows: Luciferase Assay. Format: cell-based. As to conditions: read-out: Luciferase EC50. How it is done:
A pool of infected cells were then selected against 2 μg/mL of puromycin (P8833, Sigma) for 10 days followed by limited dilution to select single clones.
Each concentration was tested in triplicate. After about 24 hours, luciferase activity was determined using ONE-Glo Luciferase Assay Reagent (E6110, Promega) following the manufacturer's recommended procedure. EC50 were calculated by using Dotmatics software.

The mark [2] stands for this setting: 24 h, 786-O-Hif-Luc cells, about 24 hours.
The mark [3] stands for this setting: 786-O-Hif-Luc cells, about 24 hours.

Among the data in patent US10098878B2, “HIF-2α inhibitors for treating iron overload disorders” (The Board of Regents of the University of Texas System, priority 2014, dated 2018) are IC50 and EC50 values, retold here.

What is called IC50 is the concentration that gives 50% inhibition. Usually EC50 stands for the concentration giving half of the maximal effect.

Where two headings read alike, the source gives them in different places.

T1 sequence (Q99814 240-350 limits assumed): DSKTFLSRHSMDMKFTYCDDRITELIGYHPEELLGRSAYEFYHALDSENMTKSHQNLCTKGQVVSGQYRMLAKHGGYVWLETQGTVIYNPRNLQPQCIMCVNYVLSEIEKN

For the compound `CS(=O)(=NC#N)c1ccc(Oc2cc(F)cc(C#N)c2)c2c1[C@H](O)[C@H](F)C2` (mixture of isomers) [Compound 66, N-(((2R,3S)-7-(3-cyano-5-fluorophenoxy)-2-fluoro-3-hydroxy-2,3-dihydro-1H-inden-4-yl)(methyl)(oxo)-λ^6-sulfanylidene)cyanamide], the IC50 in test [1] amounted to 0.063 µM. In the test with 786-O-Hif-Luc cells (setting [2]), the half-maximal effective concentration (EC50) came out at 0.115 µM.

Take `N#Cc1cc(F)cc(Oc2ccc(S(=O)(=O)C(F)(F)F)c3c2[C@@H](N)C[C@H]3O)c1` (relative stereo) [Compound 43, 3-((cis-3-amino-1-hydroxy-7-((trifluoromethyl)sulfonyl)-2,3-dihydro-1H-inden-4-yl)oxy)-5-fluorobenzonitrile]: the IC50 in test [1] was determined as 5.1 µM. Besides, the EC50 in the test on 786-O-Hif-Luc cells (setting [2]) is 5.9 µM.

`N#Cc1cc(F)cc(Oc2ccc(S(=O)(=O)C(F)(F)F)c3c2CC(F)C3N)c1` (single isomer, unassigned) [Compound 29, 3-((1-amino-2-fluoro-7-((trifluoromethyl)sulfonyl)-2,3-dihydro-1H-inden-4-yl)oxy)-5-fluorobenzonitrile]: the IC50 in test [1] turned out to be 0.09 µM. In the test with 786-O-Hif-Luc cells (setting [2]), the concentration giving a half-maximal response (EC50) was found to be 0.897 µM.

`N#Cc1cc(F)cc(Oc2ccc(S(=N)(=O)CF)c3c2CC(F)(F)[C@H]3O)c1` (single isomer, unassigned) [Compound 39]: the concentration for half-maximal inhibition (IC50) in test [1] is 0.076 µM. Moreover, the concentration for a half-maximal effect (EC50) with 786-O-Hif-Luc cells (setting [3]) was 0.255 µM.

Regarding `N#CN=S(=O)(CF)c1ccc(Oc2cc(F)cc(C#N)c2)c2c1[C@H](O)[C@H](F)C2` (single isomer, unassigned) [Compound 40], the half-inhibitory concentration (IC50) in test [1] was determined as 0.058 µM. In addition, the concentration giving a half-maximal response (EC50) with 786-O-Hif-Luc cells (setting [3]) came to 0.153 µM.

With `N#CN=S(=O)(CF)c1ccc(Oc2cc(F)cc(C#N)c2)c2c1[C@H](O)C(F)(F)C2` (single isomer, unassigned) [Compound 49], the IC50 in test [1] is 0.071 µM. Further, the EC50 in the test on 786-O-Hif-Luc cells (setting [2]) was 0.1 µM.

With `C=CCN=S(=O)(c1ccc(Oc2cc(F)cc(C#N)c2)c2c1[C@H](O)C(F)(F)C2)C(F)(F)F` (single isomer, unassigned) [Compound 71], the IC50 in test [1] was 0.37 µM. Also, in the test on 786-O-Hif-Luc cells (setting [3]), the EC50 came out at 1.67 µM.

In the case of `N=S1(=O)c2ccc(Oc3cc(F)cc(F)c3)c(Br)c2C(O)C1(F)F` (single isomer, unassigned) [Compound 141, 4-Bromo-5-(3,5-difluorophenoxy)-2,2-difluoro-3-hydroxy-1-imino-2,3-dihydro-1H-1λ^4-benzo[b]thiophene 1-oxide], in test [1], the IC50 came to 4.1 µM. The EC50 in the test on 786-O-Hif-Luc cells (setting [2]) worked out at 0.544 µM.

Consider `N=S1(=O)c2ccc(Oc3cc(F)cc(F)c3)c(Br)c2C(O)C1(F)F` (single isomer, unassigned) [Compound 142, 4-bromo-5-(3,5-difluorophenoxy)-2,2-difluoro-3-hydroxy-1-imino-2,3-dihydro-1H-1λ^4-benzo[b]thiophene 1-oxide], for which, in test [1], the half-maximal inhibitory concentration (IC50) turned out to be 0.239 µM. For the same compound, the EC50 in the test with 786-O-Hif-Luc cells (setting [3]) stood at 0.286 µM.

For `N#Cc1cc(F)cc(Oc2ccc3c(c2C(F)F)C(O)C(F)(F)S3(=O)=O)c1` (stereo not drawn) [Compound 139, 3-((4-(Difluoromethyl)-2,2-difluoro-3-hydroxy-1,1-dioxido-2,3-dihydrobenzo[b]thiophen-5-yl)oxy)-5-fluorobenzonitrile], in the test with 786-O-Hif-Luc cells (setting [3]), the half-maximal effective concentration (EC50) stood at 0.004 µM.

Turning to `[2H]C1(O)c2c(ccc(Oc3cc(F)cc(C#N)c3)c2C(F)F)S(=O)(=O)C1(F)F` (stereo not drawn) [Compound 150, 3-((4-(Difluoromethyl)-2,2-difluoro-3-hydroxy-1,1-dioxido-2,3-dihydrobenzo[b]thiophen-5-yl-3-d)oxy)-5-fluorobenzonitrile], in the test on 786-O-Hif-Luc cells, the half-maximal effective concentration (EC50) is 0.012 µM.

For `[2H][C@@]1(O)c2c(ccc(Oc3cc(F)cc(C#N)c3)c2C(F)F)S(=O)(=O)C1(F)F` [Compound 153, (R)-3-((4-(Difluoromethyl)-2,2-difluoro-3-hydroxy-1,1-dioxido-2,3-dihydrobenzo[b]thiophen-5-yl-3-d)oxy)-5-fluorobenzonitrile], the EC50 in the test on 786-O-Hif-Luc cells (setting [3]) amounted to 0.006 µM.
